Data on 24 compounds can be found in patent US12139477B2, “Compounds, salts thereof and methods for treatment of diseases” (ACADIA PHARMACEUTICALS INC., priority 2017, dated 2024).

Sequence of 5HT2A (P28223 whole entry): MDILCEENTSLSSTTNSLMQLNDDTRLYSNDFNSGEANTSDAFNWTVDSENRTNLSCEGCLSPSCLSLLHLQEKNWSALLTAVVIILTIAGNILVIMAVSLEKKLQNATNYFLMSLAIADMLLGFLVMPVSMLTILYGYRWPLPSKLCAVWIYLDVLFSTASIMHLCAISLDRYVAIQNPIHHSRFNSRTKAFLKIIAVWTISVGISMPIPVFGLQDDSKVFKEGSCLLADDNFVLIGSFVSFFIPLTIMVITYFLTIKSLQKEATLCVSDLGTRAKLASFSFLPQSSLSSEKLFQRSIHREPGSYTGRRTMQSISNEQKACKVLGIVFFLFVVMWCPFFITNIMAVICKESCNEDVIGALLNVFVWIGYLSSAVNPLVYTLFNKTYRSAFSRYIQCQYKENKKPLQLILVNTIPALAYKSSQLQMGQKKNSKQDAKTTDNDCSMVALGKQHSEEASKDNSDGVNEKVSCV

The test addresses 5HT2A (Homo sapiens, UniProt P28223). As to the kind of experiment: Receptor Selection and Amplification (R-SAT) functional assay. More on the design: expressed in transfected cells; host or cells: NIH3T3 cells, pSI mammalian expression vector. Format: cell-based. The conditions noted are these: NIH3T3 cells; Ki from IC50 by Cheng and Prussoff; read-out: 5-HT2a (pKi) (R-SAT) (converted). From the text:
Receptor Selection and Amplification (R-SAT) Assays. […] The IC50 determined in the RSAT assay was converted into a Ki value using the method of Cheng and Prussoff, Biochem Pharmacol., 1973 Dec. 1; 22(23):3099-108. pKi is the negative of the log(Ki).
Consider `CC(C)COc1ccc(CNC(=O)N(Cc2ccc(C(F)(F)F)cc2O)C2CCN(C)CC2)cc1` [Example 90, 1-{[2-hydroxy-4-(trifluoromethyl)phenyl]methyl}-1-(1-methylpiperidin-4-yl)-3-{[4-(2-methylpropoxy)phenyl]methyl}urea; Trifluoroacetic Acid], for which the Ki was 12.6 nM.
The result for `COCCCOc1ccc(CNC(=O)N(Cc2ccc(F)cc2F)C2CCN(C)CC2)cc1` [Example 96, 1-[(2,4-difluorophenyl)methyl]-3-{[4-(3-methoxypropoxy)phenyl]methyl}-1-(1-methylpiperidin-4-yl)urea; Trifluoroacetic Acid] reads 10 nM.
The result for `CN1CCC(N(Cc2ccc(F)cc2F)C(=O)NCc2ccc3ncoc3c2)CC1` [Example 29] reads 10 nM; that for `CN1CCC(N(Cc2ccc(F)cc2F)C(=O)NCc2ccc3[nH]ncc3c2)CC1` [Example 93, 1-[(2,4-difluorophenyl)methyl]-3-[(1H-indazol-5-yl)methyl]-1-(1-methylpiperidin-4-yl)urea; Trifluoroacetic Acid], 39.8 nM; that for `O=C(O)C(F)(F)F.[2H]C1([2H])Oc2ccc(CNC(=O)N(Cc3ccc(F)cc3F)C3CCN(C)CC3)cc2C1([2H])[2H]` [Example 159, 1-[(2,4-difluorophenyl)methyl]-3-{[2,3-dihydro(2,2,3,3-^2H4)-1-benzofuran-5-yl]methyl}-1-(1-methylpiperidin-4-yl)urea; Trifluoroacetic Acid], 7.94 nM.
The result for `COc1cc(F)ccc1CN(C(=O)NCc1ccc(OCC(C)C)cc1)C1CCN(C)CC1` [Example 91, 1-[(4-fluoro-2-methoxyphenyl)methyl]-1-(1-methylpiperidin-4-yl)-3-{[4-(2-methylpropoxy)phenyl]methyl}urea; Trifluoroacetic Acid] reads 15.8 nM; that for `CC(C)Oc1ccc(CNC(=O)N(Cc2ccc(F)cc2Cl)C2CCNCC2)cc1` [Example 110, 1-[(2-chloro-4-fluorophenyl)methyl]-1-(piperidin-4-yl)-3-{[4-(propan-2-yloxy)phenyl]methyl}urea; Trifluoroacetic Acid], 25.1 nM; that for `CN1CCC(N(Cc2ccc(F)cc2F)C(=O)NCc2ccc(COCCO)c(F)c2)CC1` [Example 88, 1-[(2,4-difluorophenyl)methyl]-3-({3-fluoro-4-[(2-hydroxyethoxy)methyl]phenyl}methyl)-1-(1-methylpiperidin-4-yl)urea; Trifluoroacetic Acid], 63.1 nM.
For `COc1c(F)ccc(CNC(=O)N(Cc2ccc(F)cc2F)C2CCN(C)CC2)c1F` [Example 54], the Ki is 7.94 nM.
The result for `CN1CCC(N(Cc2ccc(F)cc2F)C(=O)NCc2ccc([C@H](O)CO)cc2)CC1` (racemic) [Example 94, 1-[(2,4-difluorophenyl)methyl]-3-({4-[(1R)-1,2-dihydroxyethyl]phenyl}methyl)-1-(1-methylpiperidin-4-yl)urea; Trifluoroacetic Acid and 1-[(2,4-difluorophenyl)methyl]-3-({4-[(1S)-1,2-dihydroxyethyl]phenyl}methyl)-1-(1-methylpiperidin-4-yl)urea; Trifluoroacetic Acid] reads 100 nM; that for `CC(C)Oc1ccc(CNC(=O)N(Cc2ccc(Cl)cc2Cl)C2CCN(C)CC2)cc1` [Example 106, 1-[(2,4-dichlorophenyl)methyl]-1-(1-methylpiperidin-4-yl)-3-{[4-(propan-2-yloxy)phenyl]methyl}urea; Trifluoroacetic Acid], 50.1 nM; that for `CC(C)Oc1ccc(CNC(=O)N(Cc2ccc(F)c(F)c2)C2CCN(C)CC2)cc1` [Example 130, 1-[(3,4-difluorophenyl)methyl]-1-(1-methylpiperidin-4-yl)-3-{[4-(propan-2-yloxy)phenyl]methyl}urea; Trifluoroacetic Acid], 79.4 nM.
The result for `CC(C)Oc1ccc(CNC(=O)N(Cc2c(F)ccc(F)c2F)C2CCN(C)CC2)cc1` [Example 113, 1-(1-methylpiperidin-4-yl)-3-{[4-(propan-2-yloxy)phenyl]methyl}-1-[(2,3,6-trifluorophenyl)methyl]urea; Trifluoroacetic Acid] reads 126 nM; that for `Cc1c(F)ccc(CN(C(=O)NCc2ccc(OC(C)C)cc2)C2CCN(C)CC2)c1F` [Example 114, 1-[(2,4-difluoro-3-methylphenyl)methyl]-1-(1-methylpiperidin-4-yl)-3-{[4-(propan-2-yloxy)phenyl]methyl}urea; Trifluoroacetic Acid], 6.31 nM.
With `COc1cc(F)c(CNC(=O)N(Cc2ccc(F)cc2F)C2CCN(C)CC2)c(F)c1` [Example 150, 1-[(2,6-difluoro-4-methoxyphenyl)methyl]-3-[(2,4-difluorophenyl)methyl]-3-(1-methylpiperidin-4-yl)urea; Trifluoroacetic Acid], the Ki is 5.01 nM.
The result for `COc1cc(CNC(=O)N(Cc2ccc(F)cc2F)C2CCN(C)CC2)ccc1F` [Example 146, 1-[(2,4-difluorophenyl)methyl]-3-[(4-fluoro-3-methoxyphenyl)methyl]-1-(1-methylpiperidin-4-yl)urea; Trifluoroacetic Acid] reads 5.01 nM; that for `COc1cc(F)c(CN(C(=O)NCc2ccc(OC(C)C)cc2)C2CCN(C)CC2)c(F)c1` [Example 136, 1-[(2,6-difluoro-4-methoxyphenyl)methyl]-1-(1-methylpiperidin-4-yl)-3-{[4-(propan-2-yloxy)phenyl]methyl}urea; Trifluoroacetic Acid], 7.94 nM.
The result for `CC(C)COc1ccc(CNC(=O)N(Cc2ccc(Cl)cc2Cl)C2CCNCC2)cc1` [Example 111, 1-[(2,4-dichlorophenyl)methyl]-3-{[4-(2-methylpropoxy)phenyl]methyl}-1-(piperidin-4-yl)urea; Trifluoroacetic Acid] reads 79.4 nM.
The result for `COc1cc(OC(C)C)ccc1CNC(=O)N(Cc1ccc(F)cc1F)C1CCN(C)CC1` [Example 74, 1-[(2,4-difluorophenyl)methyl]-3-{[2-methoxy-4-(propan-2-yloxy)phenyl]methyl}-1-(1-methylpiperidin-4-yl)urea] reads 39.8 nM.
Take `COc1ccc(CNC(=O)N(Cc2ccc(F)cc2F)C2CCN(C)CC2)c(OC)c1` [Example 50]: the Ki was 100 nM.
The result for `CN1CCC(N(Cc2ccc(F)cc2)C(=O)NCc2ccc(F)cc2F)CC1` [Example 100, 3-[(2,4-difluorophenyl)methyl]-1-[(4-fluorophenyl)methyl]-1-(1-methylpiperidin-4-yl)urea; Trifluoroacetic Acid] reads 20 nM; that for `CC(C)COc1ccc(CNC(=O)N(Cc2ccc(F)cc2OC(F)(F)F)C2CCN(C)CC2)cc1` [Example 103, 1-{[4-fluoro-2-(trifluoromethoxy)phenyl]methyl}-1-(1-methylpiperidin-4-yl)-3-{[4-(2-methylpropoxy)phenyl]methyl}urea; Trifluoroacetic Acid], 251 nM; that for `CN1CCC(N(Cc2ccc(F)cc2F)C(=O)NCc2ccc3c(ccn3C)c2)CC1` [Example 31], 6.31 nM.
The result for `CC(C)Oc1ccc(CNC(=O)N(Cc2ccc(F)cc2F)[C@@H]2CCN3CCC[C@H]3C2)cc1` [Example 80, 1-[(7R,8aS)-octahydroindolizin-7-yl]-1-[(2,4-difluorophenyl)methyl]-3-{[4-(propan-2-yloxy)phenyl]methyl}urea; Trifluoroacetic Acid] reads 2.51 nM.
